Values joined by “and” are separate entries in the source; they are usually repeats but may differ in a detail not shown here. Equal entries are not always repeated.
Legend:
[1] = tested on: Caco-2 cell monolayer model; assay: Caco-2 bidirectional transport; format: in vitro ADME; conditions: Caco-2, 120 min
Experimental: (§1) Caco-2 cells were inoculated in a Transwell chamber with a pore size of 0.4 μm, and cultured for 15–20 days, the formation of the monolayer cell model was verified by the permeability determination of fluorescein sodium. Then a certain concentration of culture-medium containing candidate compounds was added to the upper and lower sides of different groups of cells, and the culture-medium at the corresponding position was absorbed after the specified time. After the internal standard compound was added, the content of candidate compounds was determined by LC-MS/MS to investigate the apparent permeability and effection rate, and to analyze the bidirectional transport characteristics of candidate compounds in the Caco-2 cell monolayer model.

[2] = Caco-2 bidirectional transport; format: in vitro ADME; conditions: human
Experimental: as §1

[3] = Body weight and adverse effects in xenograft study; format: in vivo, nude mice (BALB/c-nu); conditions: 25 and 50 mg/kg orally daily for 16 days
Experimental: (§2) All procedures were performed in accordance with the Laboratory Animals Welfare Act, the Guide for the Care and Use of Laboratory Animals and the Guidelines and Policies. The rodent experiment was approved by IACUC (Institutional Animal Care and Use Committee) in the Experimental Animal Ethics Committee of West China Hospital (Approval No. 2021672A). 48 female nude mice (BALB/c-nu, 5 weeks, 15–18 g, purchased from Beijing HFK Bio-Technology Co., LTD) were acclimatized for one week in an SPF-grade animal facility (ventilated, 20–25 °C, 50–60% humidity). […] When the tumor volume reached approximately 100 mm^3 (V = L × W^2/2), the mice were randomly divided into six groups (n = 8 per group): (1) Control group (normal saline); (2) 25 mg/kg SKLB-D18-treated group; (3) 50 mg/kg SKLB-D18-treated group; (4) 50 mg/kg BVD-523-treated group; (5) 50 mg/kg XMD8-92-treated group; (6) BVD-523 (50 mg/kg) and XMD8-92 (50 mg/kg) combined treatment group. Drugs were freshly prepared with 5% DMSO, 10% Solutol HS-15, and 85% normal saline on the day of administration. Intragastric administration occurred once daily at the same time for 16 consecutive days. And the body weight and tumor volume of mice were measured every three days. After the administration period, all nude mice were euthanized by cervical dislocation the next day. […]

[4] = H&E staining of major organs; format: in vivo; conditions: xenograft study, heart, liver, spleen, lung, kidney
Experimental: as §2, with “days.” for “days. After the administration period, all nude mice were euthanized by cervical dislocation the next day.”
First, the fixed major organs of nude mice were dehydrated, embedded, and sectioned. […] Staining results and tissue morphology were analyzed under a microscope.

ERK1 = ERK1 (Homo sapiens, UniProt P27361); assay: ADP-Glo kinase assay; format: biochemical
Experimental: (§3) The full-length human ERK1 or ERK2 with His-tag was cloned into a pET28a vector. hERK1/2 were expressed in Escherichia coli BL21(DE3), and then were purified using sequential Ni-NTA and Superdex 200 column steps. The SEC purified sample was then concentrated to 10 mg/ml and stored at −80 °C with buffer containing 20 mM HEPES pH 7.5, 150 mM NaCl. ERK5 (residues 48–395) containing His and GST tags was cloned into the pFastBac vector, and the recombinant plasmid was extracted. The recombinant plasmid was transformed into the DH10bac strain, and monoclonal was selected for culture. The recombinant Bacmid was then extracted according to the instructions of the Baculovirus Shuttle Vector Bacmid Mini Preparation Kit (Beyotime) and validated by PCR. 1 × 10^6/well Sf9 cells were counted for transfection and then amplified to obtain P3 ERK5 recombinant baculovirus. It was added to 2 × 10^6/mL Sf9 cells and incubated at 27 °C for 72 h on a shaker to express ERK5. Cells were lysed and supernatant was collected on a Ni-NTA for purification, and a 250 mM imidazole eluate was collected. Next, digestion by TEV protease was performed overnight while dialysis was performed in approximately 1000 mL of imidazole-free buffer. The digested ERK5 protein was sequentially purified on the Ni-NTA and GST-tag Purification Resin, followed by size exclusion chromatography on a Superdex 75 column. ERK5 protein was collected and concentrated to 12 mg/ml and stored at −80 °C in buffer containing 50 mM HEPES pH 8.0, 200 mM NaCl, 10% (v/v) glycerol.
(§4) ERK1/2/5 kinase activity assay was conducted using ADP-Glo™ Kinase Assay. 2× ATP solution and 2× kinase & Metal solution were prepared using assay buffer were prepared using assay buffer containing 50 mM Hepes pH 7.5, 10 mM MgCl2; 0.01% Brij35, 1 mM EGTA, 2 mM DTT. Transfer 40 nL compounds to 384 assay plate. Add 2 μL of 2× kinase & Metal solution were mixed and incubated in a 384-assay plate for 10 min at 25 °C. 2 μL of 2×ATP solution was added and incubated at 25 °C for 60 min. And then, each well was supplemented with 4 µL of ADP-Glo^TM reagent and incubated at 25 °C for 40 min. Subsequently, 8 µL of Kinase Detection Reagent was added and incubated at 25 °C for 40 min. Finally, the luminescence signals were recorded. The IC50 values were calculated using GraphPad Prism 9.5 software.

ERK2 = ERK2 (Homo sapiens, UniProt P28482); assay: ADP-Glo kinase assay; format: biochemical
Experimental: as §3, §4

ERK5 = ERK5 (Homo sapiens, UniProt Q13164); assay: ADP-Glo kinase assay; format: biochemical
Experimental: as §3, §4

[5] = tested on: MDA-MB-231 cells with knockdown of ERK1/2/5; assay: MTT assay in ERK1/2/5 siRNA knockdown cells; format: cell-based; conditions: Homo sapiens, siRNA co-transfection
Experimental: (§5) The transient transfection processes were performed according to Lipofectamine 3000 transfection procedure details. The transfected cells were used for subsequent experiments after 48 h or 72 h.
(§6) Cancer cells were seeded in a density in 96-well plates (2 × 10^3 cells per well). After incubation for 24 h, cancer cells were treated with compounds (0–20 μM) for 72 h.

[6] = tested on: MDA-MB-468 cells with knockdown of ERK1/2/5; assay: MTT assay in ERK1/2/5 siRNA knockdown cells; format: cell-based; conditions: Homo sapiens, siRNA co-transfection
Experimental: as §5, §6

Chain of ERK1 (P27361 whole entry, the tested form may be a part): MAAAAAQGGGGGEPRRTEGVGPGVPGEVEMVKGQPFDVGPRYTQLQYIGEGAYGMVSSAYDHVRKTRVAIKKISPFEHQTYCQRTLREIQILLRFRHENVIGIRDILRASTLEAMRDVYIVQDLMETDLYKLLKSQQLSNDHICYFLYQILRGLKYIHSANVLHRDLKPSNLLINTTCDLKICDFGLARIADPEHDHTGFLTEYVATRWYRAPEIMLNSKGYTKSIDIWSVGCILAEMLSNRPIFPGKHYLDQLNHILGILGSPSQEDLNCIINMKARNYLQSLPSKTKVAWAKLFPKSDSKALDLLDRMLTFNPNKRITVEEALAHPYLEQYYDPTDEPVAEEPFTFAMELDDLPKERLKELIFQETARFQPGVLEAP
Chain of ERK2 (P28482 whole entry): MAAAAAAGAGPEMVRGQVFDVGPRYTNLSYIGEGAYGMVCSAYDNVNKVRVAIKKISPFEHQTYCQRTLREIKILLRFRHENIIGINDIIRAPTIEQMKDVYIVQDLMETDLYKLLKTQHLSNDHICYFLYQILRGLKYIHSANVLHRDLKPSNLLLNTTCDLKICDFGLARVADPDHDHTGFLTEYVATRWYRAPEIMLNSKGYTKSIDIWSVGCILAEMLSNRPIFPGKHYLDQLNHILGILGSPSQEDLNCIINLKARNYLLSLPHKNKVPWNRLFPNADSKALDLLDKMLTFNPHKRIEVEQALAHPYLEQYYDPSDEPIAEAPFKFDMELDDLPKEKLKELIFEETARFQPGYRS
Chain of ERK5 (Q13164 whole entry): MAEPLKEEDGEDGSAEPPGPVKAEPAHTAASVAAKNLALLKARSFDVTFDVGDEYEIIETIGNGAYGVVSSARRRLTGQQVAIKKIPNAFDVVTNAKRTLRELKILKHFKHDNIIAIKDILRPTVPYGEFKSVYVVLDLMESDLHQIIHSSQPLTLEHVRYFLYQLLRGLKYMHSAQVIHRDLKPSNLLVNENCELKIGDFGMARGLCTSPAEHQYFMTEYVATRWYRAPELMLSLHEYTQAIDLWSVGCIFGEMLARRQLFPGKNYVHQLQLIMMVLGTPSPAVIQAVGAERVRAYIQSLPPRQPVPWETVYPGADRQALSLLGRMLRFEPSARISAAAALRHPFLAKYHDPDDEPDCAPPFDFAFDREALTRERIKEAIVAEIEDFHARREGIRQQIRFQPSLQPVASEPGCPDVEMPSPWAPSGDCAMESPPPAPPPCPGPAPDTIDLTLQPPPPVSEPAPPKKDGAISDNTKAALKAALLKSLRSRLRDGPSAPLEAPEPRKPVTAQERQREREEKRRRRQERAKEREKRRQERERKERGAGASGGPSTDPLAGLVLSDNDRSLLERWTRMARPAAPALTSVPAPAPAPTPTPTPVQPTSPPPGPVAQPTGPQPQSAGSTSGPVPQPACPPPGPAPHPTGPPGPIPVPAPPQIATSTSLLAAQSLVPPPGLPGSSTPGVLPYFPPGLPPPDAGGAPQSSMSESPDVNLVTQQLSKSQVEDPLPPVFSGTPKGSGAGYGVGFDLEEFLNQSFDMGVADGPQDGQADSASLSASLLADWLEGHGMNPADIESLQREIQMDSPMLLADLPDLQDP

In the case of CN(C)Cc1cccc(Nc2ncc(Cl)c(-c3csc(C(=O)NN4CCOCC4)c3)n2)c1 [SKLB-D18, 4-(5-chloro-2-((3-((dimethylamino)methyl)phenyl)amino)pyrimidin-4-yl)-N-morpholinothiophene-2-carboxamide], the “Efflux rate (%)” value [1] is reported as 13.7% and 13.7 ± 0.5%, the Papp A→B at 30 min ([2]; Caco-2, 30 min, read-out: AP→BL Papp) is reported as 0.106 ± 0.01 ×10⁻⁶ cm/s and the Papp B→A at 30 min ([2]; Caco-2, 30 min, read-out: BL→AP Papp) is reported as 0.011 ± 0.01 ×10⁻⁶ cm/s. It also gave a Papp A→B at 60 min ([2]; Caco-2, 60 min, read-out: AP→BL Papp) of 0.318 ± 0.06 ×10⁻⁶ cm/s, a Papp B→A at 60 min ([2]; Caco-2, 60 min, read-out: BL→AP Papp) of 0.117 ± 0.02 ×10⁻⁶ cm/s and a Papp A→B at 120 min ([2]; Caco-2, 120 min, read-out: AP→BL Papp) of 2.23 ×10⁻⁶ cm/s. For the same compound, the Papp B→A at 120 min ([2]; Caco-2, 120 min, read-out: BL→AP Papp) was 0.305 ×10⁻⁶ cm/s, the “weight loss or adverse effects” value [3] was “No significant weight loss or adverse effects” and the “toxicity to major organs (H&E staining)” value [4] was “no significant toxicity”. For the same compound, the IC50 (ERK1; ADP-Glo) was 38.7 ± 0.62 nM, the inhibition at 0.5 µM (ERK1; read-out: Enzyme inhibitory activity (500 nM, %) ERK1) was 95.62 ± 0.84% and the IC50 (ERK2; ADP-Glo) was 40.1 ± 0.95 nM. It also gave an inhibition at 0.5 µM (ERK2; read-out: Enzyme inhibitory activity (500 nM, %) ERK2) of 93.2 ± 1.45%, an IC50 (ERK5; ADP-Glo) of 59.7 ± 1.21 nM and an inhibition at 0.5 µM (ERK5; read-out: Enzyme inhibitory activity (500 nM, %) ERK5) of 93.1 ± 1.03%. For the same compound, the IC50 [5] was 14800 nM and the IC50 [6] was 19800 nM.

— PMC11842588, “A first-in-class selective inhibitor of ERK1/2 and ERK5 overcomes drug resistance with a single-molecule strategy” (Signal Transduction and Targeted Therapy, 2025)
